Assays:
[1] = tested on: TAC-induced heart failure model; assay: Transverse aortic constriction (TAC)-induced heart failure model (Example 4); type: in vivo, C57/6J male mice
Procedure: The transverse aortic constriction (TAC) model is the most commonly used disease model of chronic ventricular hypertrophy, which is used to simulate hypertrophic cardiomyopathy, heart failure, and hypertensive heart disease caused by hypertension or increased intraventricular pressure.
Nine-week-old C57/6J male mice were divided into five groups (sham group, TAC group, 30 mg/kg cmpagliflozin group (E30), 10 mg/kg empagliflozin+15 mg/kg menthol group (E10+M15), and 30 mg/kg empagliflozin+45 mg/kg menthol group (E30+M45)).
Experimental process of aortic arch constriction surgery: hair was removed from the surgical area from the neck to the anterior chest of the experimental mouse, and the surgical area was disinfected with iodine. The neck and chest were opened in the midline, the muscles were bluntly separated, the incision was retracted with retractors, the thymus was dissected, and the aortic arch was exposed. The innominate artery, left common carotid artery, and left subclavian artery were found along the aortic arch. The thread was passed between the right innominate artery and the left common carotid artery, and the constriction needle was paced parallel to the aortic arch and then the thread was tied a knot. After tightening the thread, the constriction needle was slowly withdrawn, that is, quantitative constriction was formed in the aortic arch. The chest cavity was closed, the skin on the neck and chest was sutured and disinfected with iodine. Two weeks after the operation, after confirming the hypertrophy of the heart through cardiac function test, drug administration started, and continued for 4 weeks. The drug administration group was gavaged once a day in the morning, and the sham group and TAC group were gavaged with the same amount of drinking water every morning.
The survival of mice was recorded during the experiment. After 4 weeks of continuous administration, the exercise tolerance of experimental mice was evaluated by rotarod test, suspension test and grip strength test. The rotarod test evaluated the maximum tolerance time of mice at a speed of 35 rpm, the suspension test evaluated the maximum tolerance time of mice forearm suspension, and the grip strength test evaluated the maximum grip strength of mice forepaws. […] After the experiment, the mice were euthanized, the hearts were weighed, the heart-body weight ratio was calculated, and then the hearts were fixed, paraffin-embedded, sliced, and Masson-stained. ImageJ was used to quantify the fibrosis area and calculate the degree of cardiac fibrosis. Graph Pad software was used for data processing and significant differences were calculated (OneWayANOVA was used between multiple groups, and Student's t test was used between two groups).

[2] = tested on: ISO-induced heart failure model; assay: Isoproterenol-induced heart failure model (Example 3); type: in vivo, C57/6J male mice; details: for cardiac function (ejection fraction, fractional shortening, echocardiography): gavage daily, day 15
Procedure: Isoproterenol hydrochloride is a commonly used inducer for establishing a heart failure model. Subcutaneous injection of isoproterenol hydrochloride can accelerate the heart rate of mice, cause the myocardium to continue to contract strongly, increase myocardial oxygen consumption, increase the heart load, and eventually cause heart failure.
Preferably, 50 µM of empagliflozin and 200 μM of menthol were converted into a mass ratio of about 1:1.5 according to the molar molecular weight. The dose of empagliflozin was set at 10 mg/kg and 30 mg/kg, and the pharmaceutical composition was set as the 10 mg/kg empagliflozin+15 mg/kg menthol group. In addition, in order to determine the extent to which the combination of menthol can reduce the effective dose of empagliflozin, a combination of menthol at a dose of 15 mg/kg and empagliflozin at a dose of 5 mg/kg was administered, resulting in the empagliflozin 5 mg/kg+menthol 15 mg/kg group.
Specifically, C57/6J male mice with an average body weight of about 21-22 g were divided into 7 groups (sham group, ISO group, empagliflozin 30 mg/kg group (E30), empagliflozin 10 mg/kg group (E10), menthol 15 mg/kg group (M15), empagliflozin 10 mg/kg+menthol 15 mg/kg group (E10+M15), empagliflozin 5 mg/kg+menthol 15 mg/kg group (E5+M15)), with 8 mice in each group. The mice were given drugs by gavage every morning, and the solvent was DMSO (the content was less than 5%, and menthol and empagliflozin solution were mixed in equal volumes and then gavaged into the mice). The sham group and ISO group were gavaged with an equal amount of drinking water every morning.
Isoproterenol hydrochloride was injected subcutaneously twice a day, in the morning and evening, with a dose of 40 mg/kg on days 1-2, 20 mg/kg on days 3-7, and 10 mg/kg on days 8-14. […]
On the 15th day, the Visual-Sonics Vevo 3100 small animal high-resolution micro-ultrasound imaging system was used to evaluate the cardiac structure and function of the experimental mice in each group. Three cardiac cycles were taken to measure the systolic interventricular septum thickness (IVSs), diastolic interventricular septum thickness (IVSd), left ventricular systolic inner diameter (LVIDs), left ventricular diastolic inner diameter (LVIDd), systolic left ventricular posterior wall thickness (LVPWs), and diastolic left ventricular posterior wall thickness (LVPWd), and the ejection fraction (EF, %) and fractional shortening (FS, %) were calculated. […] ImageJ was used to quantify the fibrosis area and calculate the degree of cardiac fibrosis. Graph Pad software was used for data processing and significant differences were calculated (OneWayANOVA was used between multiple groups, and Student's t test was used between two groups).

[3] = tested on: Rat myocardial cells (H9c2); assay: Glucose deprivation (GD)-induced myocardial cell injury model, cck8 cell survival, checkerboard (Example 1); type: cell-based; details: empagliflozin used alone; GD 36-48 h
Procedure: In this example, a glucose deprivation (GD)-induced myocardial cell injury model was used to evaluate the protective effect of the drug composition on myocardial cells. Rat myocardial cells (H9c2) were purchased from the stem cell bank of the Chinese Academy of Sciences. Myocardial cells were cultured in high-glucose DMEM (containing 10% fetal bovine serum, 1% penicillin/streptomycin) culture medium and placed in an incubator at 37° C. and 5% CO2. After the myocardial cells basically covered the cell culture dish (10 cm), the cells were digested with trypsin and planted in a 96-well plate at a cell density of 8000 cells/well, 100 μL per well. When the cells covered the bottom of the dish, the DMEM culture medium was removed and the plate was washed once with PBS. The compound was diluted to the target concentration with sugar-free and serum-free DMEM, added to the plate, and treated with GD. […] The cell survival rates of empagliflozin (EMPA) 0-100 μM, L-menthol (MEN) 0-200 μM and combined concentrations were tested, and the cell survival rates of single drugs and combined drugs were input into CompuSyn (http://www.combosyn.com) to calculate the synergistic coefficient.

[4] = tested on: PGC-1α, PPARα, CPT1b; assay: Western blotting of fatty acid metabolism proteins (Example 6); type: cell-based, Rat; details: 48 h; menthol 200 μM alone or 50 μM empagliflozin + 200 μM menthol
Procedure: 2. Western blotting. H9c2 cells were seeded in a 12-well plate. After 48 hours of drug treatment, the cells were harvested and the total protein in the cells was extracted with RIPA lysis buffer. After BCA quantification, 4× loading buffer was added and boiled in a 95° C. metal bath for 10 minutes to denature the protein. 5-10 μg of the denatured protein sample was added to SDS-PAGE. After electrophoresis, separation, transfer, and blocking, PGC-1α, PPARα, CPT1b, and GAPDH primary antibody were added and incubated overnight at 4° C. The next day, the primary antibody was recovered, and the corresponding secondary antibody was added and incubated at room temperature for 1 hour. After washing three times, ECL chemiluminescent solution was added to the strips, and immunoblotting analysis was performed using a Tanon gel imager. ImageJ software was used to perform grayscale analysis of the immunoblot bands, GAPDH was used as an internal reference for correction, and the relative expression content of the protein was calculated. The experiment was divided into DMSO group (DMSO treatment group with content not exceeding 0.5%), E50 (50 μM EMPA treatment group), M200 (200 μM menthol treatment group), and E50+M200 (50 μM empagliflozin+200 μM menthol treatment group).

Compound	myocardial hypertrophy (heart weight to body weight ratio) ([1]; EMPA 30 mg/kg, 4 weeks)	mouse deaths during the experiment (survival) ([1]; EMPA 30 mg/kg, gavage once daily for 4 weeks)	cardiac function (ejection fraction, fractional shortening, LV diameters) ([1]; empagliflozin 30 mg/kg, 4 weeks)	exercise tolerance (grip strength, rotarod, forearm suspension) ([1]; empagliflozin alone 30 mg/kg, 4 weeks)	cardiac function (ejection fraction, fractional shortening, echocardiography) ([2]; empagliflozin 10 mg/kg)	myocardial fibrosis (Masson staining area) ([2]; empagliflozin 30 mg/kg)	cardiac function (ejection fraction, fractional shortening, echocardiography) ([2]; empagliflozin 30 mg/kg)	effective concentration of empagliflozin (cell survival) [3] [µM]	cardiac function (ejection fraction, fractional shortening, echocardiography) ([2]; menthol 15 mg/kg)	expression of PCG-1α/PPARα [4]	expression of fatty acid transporter CPT1b [4]
OC[C@H]1O[C@@H](c2ccc(Cl)c(Cc3ccc(O[C@H]4CCOC4)cc3)c2)[C@H](O)[C@@H](O)[C@@H]1O [empagliflozin]	significantly improves myocardial hypertrophy	one mouse died	significantly improves TAC-induced cardiac dysfunction	cannot improve the exercise tolerance	cannot significantly improve the cardiac function	significantly reduce myocardial fibrosis	can effectively improve	50			
CC(C)[C@@H]1CC[C@@H](C)C[C@H]1O [menthol, L-menthol]									slightly improved the cardiac function of mice with heart failure at a dose of 15 mg/kg, but there is no significant difference	significantly increase the expression	upregulate the expression

— patent US20250360091A1, “COMBINATION OF SGLT2 INHIBITOR AND MENTHOL AND USE THEREOF IN TREATMENT OF HEART DISEASE” (EAST CHINA UNIVERSITY OF SCIENCE AND TECHNOLOGY, priority 2023, published 2025)
